Source: patent publication US10351587B2, “Method of making and using 7α, 11β-dimethyl-17β-hydroxyestr-4-en-3-one 17-undecanoate” (The United States of America, as represented by the …, priority 2000, dated 2019)
“And” between values parts separate entries of the source, which are not always exact repeats. Equal entries are not always repeated. “Also recorded” adds a separate entry of the source.

Columns and labels:
[1] = Serum levels of the free alcohol after a single subcutaneous injection; assay type: in vivo, Sprague-Dawley rats; conditions: single subcutaneous injection 0.6 mg in aqueous carrier, 10-week observation period
Experimental: (§1) Immature (about 21-day-old) Sprague-Dawley rats were orchidectomized under anesthesia, and randomly assignee to groups of 40 or more. Animals received a single subcutaneous injection of 0.6 mg of each ester in 0.2 ml of an aqueous suspending carrier and/or oily carrier (10% ethanol/90% sesame oil or ethyl oleate) on the date of the orchidectomy. In cases where the ester was not solid at room temperature, 10% ethanol/sesame oil or ethyl oleate was used as the carrier. In this example, the carrier used to provide the aqueous suspension was formulated as follows: 1 g benzyl alcohol, 0.5 g sodium carboxylethyl cellulose 50, 0.376 g disodium hydrogen phosphate dihydrate, 1.495 g sodium dihydrogen phosphate dihydrate, with water for injection (WFI) being added to bring volume of the carrier up to 100 ml.

[2] = tested on: castrate Sprague-Dawley rats; assay: Duration of activity after a single subcutaneous injection (ventral prostate weight over weeks, AUC); assay type: in vivo; conditions: for Long-term androgenic activity (ventral prostate weight over time), in words / AUC of ventral prostate weight (FIG. 5) / AUC of ventral prostate weight (FIG. 15): single subcutaneous injection; for AUC of ventral prostate weight (FIG. 5): n=5
Experimental: Immature (about 21-day-old) Sprague-Dawley rats were orchidectomized under anesthesia, and randomly assignee to groups of ten animals for each dose level of the active undergoing testing. Each active was administered by subcutaneous injection each day for seven days beginning on the date of the orchidectomy. The animals were sacrificed 24 hours after the last dose, and the ventral prostate and seminal vesicles were excised, cleaned of fat and connective tissue, blotted on moist filter paper and weighed to the nearest 0.1 mg. Regression analysis was performed by conventional methods using a PROPHET data management system. Ventral prostate weight was used as the endpoint because it is the sensitive organ to androgenic stimulation.
Except for testosterone enanthate, each active was formulated in two different carriers: (1) an aqueous suspension and (2) in sesame oil. Testosterone enanthate was formulated using the sesame oil carrier only, because it exists as a liquid at room temperature and could not therefore be formulated as an aqueous suspension.
(§2) The carrier used to provide the aqueous suspension was formulated as follows: 1 g benzyl alcohol, 0.5 g sodium carboxylethyl cellulose 50, 0.376 g disodium hydrogen phosphate dihydrate, 1.495 g sodium dihydrogen phosphate dihydrate, with water for injection (WFI) being added to bring volume of the carrier up to 100 ml.
Each formulation was prepared at a concentration of 0.6 mg/0.2 ml.
as §1
Five animals from each group were sacrificed at weekly or biweekly intervals, and the ventral prostate and seminal vesicles were excised, cleaned of fat and connective tissue, blotted on moist filter paper and weighed to the nearest 0.1 mg.
Ventral prostate weight was used as the endpoint because it is the sensitive organ to androgenic stimulation. Regression analysis was performed by conventional methods using the PROPHET data management system previously identified.
Immature (about 21-day-old) Sprague-Dawley rats were orchidectomized under anesthesia, and randomly assignee to groups of 40 or more. Animals received a single subcutaneous injection of 0.6 mg of the undecanoate in 0.2 ml of an aqueous suspending carrier and/or oily carrier (10% ethanol/90% sesame oil containing 5 mg/ml chlorobutanol as a preservative, or ethyloleate) on the date of the orchidectomy. The enanthate ester was formulated using the 10% ethanol/sesame oil or ethyloleate carrier as a first standard, with the 10% ethanol/sesame oil carrier used as a second standard.
as §2, with “In this example, the” for “The”

[3] = tested on: castrate Sprague-Dawley rats; assay: Hershberger test, subcutaneous administration for seven days (ventral prostate weight); assay type: in vivo; conditions: for Androgenic Potency of Corresponding Alcohol: ventral prostate weight assay following subcutaneous administration, alcohol of G = 1.0 (assigned), value is for the free alcohol of the listed ester; for Androgenic activity Potency Ratio, subcutaneous: subcutaneous daily for 7 days in 10% EtOH/sesame oil, testosterone subcutaneous standard = 1.0 (assigned), ventral prostate weight
Experimental: (§3) Immature (about 21-day-old) Sprague-Dawley rats were orchidectomized under anesthesia, and randomly assignee to groups of ten animals for each dose level of the active undergoing testing. Each active was dissolved in 10% ethanol/sesame oil and administered by gavage (oral) or subcutaneous injection each day for seven days beginning on the date of the orchidectomy. The animals were sacrificed 24 hours after the last dose, and the ventral prostate and seminal vesicles were excised, cleaned of fat and connective tissue, blotted on moist filter paper and weighed to the nearest 0.1 mg. Regression analysis was performed by conventional methods using a PROPHET data management system. Ventral prostate weight was used as the endpoint because it is the sensitive organ to androgenic stimulation.
as §3, with “by” for “by gavage (oral) or”, “mg. See, e.g., Hershberger, L. et al, Myotrophic Activity of 19-nortestosterone And Other Steroids Determined By Modified Levator And Muscle Method, Proc. Soc. Exptl. Biol. Med. 83 175-180 (1953).” for “mg.”, “system. See, e.g., Bliss, C., The Statistics of Bioassay (Academic Press, New York, 1952); Hollister, C., Nucleic Acids Res. 16 1873-75 (1988).” for “system.”

[4] = tested on: castrate Sprague-Dawley rats; assay: Hershberger test, oral administration for seven days (ventral prostate weight); assay type: in vivo
Experimental: as §3, with “(oral)” for “(oral) or subcutaneous injection”, “mg. See, e.g., Hershberger, L. et al, Myotrophic Activity of 19-nortestosterone And Other Steroids Determined By Modified Levator And Muscle Method, Proc. Soc. Exptl. Biol. Med. 83 175-180 (1953).” for “mg.”, “See, e.g., Bliss, C., The Statistics of Bioassay (Academic Press, New York, 1952); Hollister, C., Nucleic Acids Res. 16 1873-75 (1988). […]” for “Ventral prostate weight was used as the endpoint because it is the sensitive organ to androgenic stimulation.”
Immature (about 21-day-old) Sprague-Dawley rats were orchidectomized under anesthesia, and randomly assignee to groups of ten animals for each dose level of the active undergoing testing. […] See, e.g., Hershberger, L. et al, Myotrophic Activity of 19-nortestosterone And Other Steroids Determined By Modified Levator And Muscle Method, Proc. Soc. […]

[5] = 0.6 mg, ASV (aqueous suspending vehicle)

Row | Compound | Long-term androgenic activity (ventral prostate weight over time), in words [2] | AUC of ventral prostate weight (FIG. 5) ([2]; 0.6 mg, S.O. (sesame oil)) | Androgenic Potency of Corresponding Alcohol [3] | other results
1 | CCCC[C@H]1CC[C@H](C(=O)O[C@H]2CC[C@H]3[C@H]4[C@H]([C@@H](C)C[C@]23C)[C@H]2CCC(=O)C=C2C[C@H]4C)CC1 (relative stereo) [CDB-4386A, 7α,11β-Dimethyl-17β-hydroxy-4-estren-3-one 17β-trans-4-n-butylcyclohexane carboxylate] | most dramatic increase and maintenance of ventral prostate weight; also recorded: greatest AUC over the 10-week period | 157 | 19.3 | Serum levels of the free alcohol (7α,11β-dimethyl-19-nortestosterone) [1]: highest levels of the free alcohol; AUC of ventral prostate weight (FIG. 5) [2, 5]: 1390
2 | CCCCCCCCCCC(=O)O[C@H]1CC[C@H]2[C@H]3[C@H]([C@@H](C)C[C@]12C)[C@H]1CCC(=O)C=C1C[C@H]3C [7α,11β-dimethyl-17β-hydroxyestr-4-en-3-one 17-undecanoate] |  |  |  | Androgenic activity Potency Ratio, oral ([4]; oral gavage daily for 7 days in 10% EtOH/sesame oil, methyltestosterone oral standard = 1.0 (assigned), ventral prostate weight): about twice that of methyltestosterone
3 | CCCC[C@H]1CC[C@H](C(=O)O[C@H]2CC[C@H]3[C@H]4[C@H](CC[C@]23C)[C@H]2CCC(=O)C=C2C[C@H]4C)CC1 [A, 7α-Methyl-19-nortestosterone-17β-bucyclate] |  |  | 8.1^3 | 
4 | CCCC[C@H]1CC[C@H](C(=O)O[C@H]2CC[C@H]3[C@H]4[C@H](CC[C@]23C)[C@H]2CCC(=O)C[C@@H]2C[C@H]4C)CC1 [B, 7α-Methyl-5α-dihydro-19-nortestosterone-17β-bucyclate] |  |  | 1.2 | 
5 | CCCC[C@H]1CC[C@H](C(=O)O[C@H]2CC=C3[C@@H]4[C@H](C)CC5=CC(=O)CC[C@]5(C)[C@H]4CC[C@@]32C)CC1 [C, 7α-Methyl-14-dehydro-testosterone-17β-bucyclate] |  |  | 61.1 | 
6 | C[C@]12CC[C@H]3[C@@H](CCC4=CC(=O)CC[C@@]43C)[C@@H]1CC[C@@H]2O [CDB-111C, testosterone] |  |  |  | Androgenic activity Potency Ratio, subcutaneous [3]: 1.00
7 | CCCCCCC(=O)O[C@H]1CC[C@H]2[C@@H]3CCC4=CC(=O)CC[C@]4(C)[C@H]3CC[C@]12C [CDB-112E, testosterone enanthate] |  | 497 |  | AUC of ventral prostate weight (FIG. 15) ([2]; 0.6 mg, 10% EtOH/Sesame Oil, 10 week period, listed as CDB-112F): 559 mg-weeks and 559.28 mg-weeks
8 | C[C@@H]1CC2=CC(=O)CC[C@@H]2[C@@H]2[C@@H]1[C@@H]1CC[C@H](O)[C@@]1(C)C[C@@H]2C [CDB-1321D, 7α,11β-Dimethyl-17β-hydroxy-4-estren-3-one] |  | 166 |  | AUC of ventral prostate weight (FIG. 5) [2, 5]: 460
9 | CCCCC1CCC(C(=O)O[C@H]2CC[C@H]3[C@@H]4CCC5=CC(=O)CC[C@]5(C)[C@H]4CC[C@]23C)CC1 (stereo partly drawn) [CDB-1781a, Testosterone bucyclate] | significantly less | 186 | 1.0 (assigned) | AUC of ventral prostate weight (FIG. 5) ([2]; 1.0 mg, ASV (aqueous suspending vehicle)): 683
10 | CCCC[C@H]1CC[C@H](C(=O)O[C@H]2CC=C3[C@H]4[C@H](CC[C@@]32C)[C@H]2CCC(=O)C=C2C[C@H]4C)CC1 [CDB-4327A, 7α-Methyl-14-dehydro-19-nortestosterone-17β-bucyclate] | surprising stimulation of ventral prostate size over the entire 20-week observation period |  |  | 
11 | CCCCC1CCC(C(=O)O[C@H]2CC[C@H]3[C@H]4[C@H]([C@H](C)C[C@]23C)[C@H]2CCC(=O)C=C2C[C@H]4C)CC1 (stereo partly drawn) [CDB-4386] | inactive; also recorded: relatively low activity |  |  | 
12 | CCCCCCCCCCC(=O)O[C@H]1CC[C@H]2[C@H]3[C@H]([C@@H](C)C[C@]12C)[C@H]1CCC(=O)C=C1C[C@H]3C [CDB-4521A, 7α,11β-dimethyl-17β-hydroxyestr-4-en-3-one 17-undecanoate] | most dramatic increase and maintenance of ventral prostate weight |  |  | AUC of ventral prostate weight relative to testosterone enanthate in sesame oil ([2]; single subcutaneous injection 0.6 mg, active in aqueous vehicle, 10 week period): about 3 times; AUC of ventral prostate weight (FIG. 15) ([2]; 0.6 mg, 10% EtOH/Sesame Oil, 10 week period): 620 mg-weeks; AUC of ventral prostate weight (FIG. 15) ([2]; 0.6 mg, Aqueous Suspending Vehicle, 10 week period): 1817 mg-weeks; Androgenic activity Potency Ratio, oral, aqueous suspending vehicle ([4]; oral gavage daily for 7 days in aqueous suspending vehicle (ASV), methyltestosterone in same vehicle = 1.0 (assigned)): 0.95; Androgenic activity Potency Ratio, subcutaneous [3]: 0.52
13 | CCCCC1CCC(C(=O)OC2CCCC3C4C(C)CC5=CC(=O)CCC5(C)C4CCC23C)CC1 [D, 7α-Methyl-D-homo-testosterone-17β-bucyclate] |  |  | 36.4-61.7^3 | 
